Source: publication PMC12598851, “Exploiting Avidity Effects for the Discovery of Low Affinity Protein-Binding Fragments” (Journal of Medicinal Chemistry, 2025)
Entries after “also recorded” stand apart in the source; their conditions may differ.

Legend:
[1] = molecular target: T1, SA-647 (Streptomyces avidinii, UniProt P22629); experiment: Pooled bead library screen against SA-647 by FACS with LC-MS hit identification; type: binding; settings: about 50-plex pooled beads, SA-647 500 nM, IP+-modified derivatives
T1 construct: purchased ThermoFisher S3235
Excerpt: While the one compound per well screening format employed for the Figures and experiments works well, it will limit throughput for the analysis of much larger fragment libraries in the future. […] A photocleavable linker was placed between the fragment and the bead (Figure a). Beads displaying compounds 2, 3, and the oxazole analog of compound 2 were also constructed with the same architecture. Beads displaying all of these compounds were then mixed together in a single Mobicol tube (approximately 25,000 of each bead type).
The resin was incubated with SA-647 (500 nM, 300 μL) for 1 h at room temperature with gentle rotation.
Prior to releasing the compounds from the resin for analysis, we “clicked” a brominated imidazopyridinium unit (IP^+) to the alkyne unit in the linker of these beads via copper-catalyzed azide–alkyne cycloaddition (Figure a,c insert). This was done for three reasons. The first was to add a chromophore to molecules so that, after release from the beads, they could be detected sensitively using a UV detector on the LC trace. […]
After attachment of the IP^+ tag, the beads were washed with a 1:1 mixture of DMF and DCM and irradiated at 365 nm (4.5 × 10^3 μJ cm^–2) for 1 h in a 3:1 DCM/MeOH mixture to release the ligands from the beads. After evaporation of solvents, the eluate was redissolved in water and analyzed by LC-MS. […]

[2] = molecular target: T2, biotin-binding surface of SA (Streptomyces avidinii, UniProt P22629); experiment: Competition assay with biotin on beads; settings: SA-647 500 nM pretreated with biotin 10 μM, 30 min
T2 construct: purchased ThermoFisher S3235
Protocol: To determine if ligand 2 interacts with the biotin-binding surface of SA, we preincubated SA-647 with excess biotin and repeated the binding assay.
This assay was conducted following the exact same procedure described above using two samples: SA-647 (500 nM) alone, and SA-647 (500 nM) that had been pretreated with biotin (10 μM) for 30 min at room temperature. Each sample was added to separate wells of a microtiter plate.

[3] = molecular target: T1, SA-647; experiment: Dose-dependent binding of SA-647 to bead-displayed ligands by FACS (MFI); settings: SA-647 0.1 to 1000 nM
Protocol: We next asked if the bead binding assay could distinguish complexes with different affinities for SA. 10 μm TentaGel beads displaying compound 2, compound 3, the oxazole analogue of compound 2 (Figure S4), or the SA-binding macrocycle 1 shown in Figure a were exposed to different concentrations of SA-647 ranging from 0.1 to 1000 nM. After washing, the intensity of fluorescence retained on the beads was measured using a flow cytometer, and the results were plotted as the mean fluorescence intensity (MFI) on the beads vs the protein concentration. […] Macrocycle 1, which binds SA with a K D of about 600 nM in solution (more than 1000 times more tightly than compound 2), binds SA-647 on resin at far lower concentrations than does compound 2.

[4] = molecular target: T3, tetrameric streptavidin (SA-647) (Streptomyces avidinii, UniProt P22629); experiment: Bead pull-down: SA-647 retained by compound-displaying TentaGel beads, plate reader; type: binding; settings: SA-647 50 nM, about 14,000-fold below the intrinsic KD
T3 construct: purchased ThermoFisher S3235

[5] = molecular target: T4, glutathione S-transferase (GST) (Schistosoma japonicum, UniProt P08515); experiment: Bead pull-down of compound 2 beads with GST as off-target control; type: binding; settings: GST 1 μM, stained with labeled antibody
T4 construct: His6 (C); made in house; host or cells: E. coli BL21 (DE3) codon plus RP

[6] = system: monomeric streptavidin (mSA-647); experiment: Bead pull-down with monomeric streptavidin; type: binding; settings: mSA-647 500 nM, 1 h, PBST, room temperature
Protocol: To investigate this, compound 2-displaying, compound 3-displaying, or blank (acetylated) beads were incubated with tetrameric SA-647 or iFluor647-conjugated monomeric streptavidin (mSA-647). Biotin-displaying beads (Figure S3) were also included in this experiment as a high-affinity comparator. […] No binding of either protein to compound 3-displaying beads was observed.
3 Stable binding of tetrameric SA to beads displaying compound 2 is highly dependent on avidity. […] Each compound was represented by 1 million 10 μm TentaGel beads, with 250,000 beads used per technical replicate. (b) Effect of ligand functionalization density on compound binding. Beads were functionalized with compound 2, compound 3, or biotin at varying surface densities (100% to 5%) and incubated with SA-647 (500 nM) for 1 h in PBST at room temperature as previously, before recording the fluorescence intensity.
General notes: • At each step, contents were mixed by pipetting up and down 3–5 times. • All steps following the addition of SA-647 were conducted in the dark. • SA-647 and mSA-647 were purchased from commercial sources; (SA-647: ThermoFisher cat#S3235, mSA-647: Millipore SAE178).

CC(=O)N(Cc1cccnc1)Cc1nc(C(=O)N(C)CC(=O)NCCOCCOCC(=O)NCC(N)=O)cs1 [Compound 2]
recovery in sorted hit pool (LC-MS peak) [1]: major peak
retention of SA-647 preincubated with excess biotin [2]: ablated retention
dose-dependent binding of SA-647 (MFI by flow cytometer) [3]: dose-dependent binding
binding of SA-647 to bead-displayed compound at low protein concentration [4]: above background binding was readily detectable
binding of GST to bead-displayed compound [5]: No detectable signal
binding of mSA-647 to bead-displayed ligand [6]: did not retain detectable levels; also recorded: not observed
